{
  "source": "paper PMC7673765",
  "about": "(Science Advances, 2020)",
  "molecules": {"B1": {"name": "LMTK3 catalytic domain (LMTK3cat; amino acids 134 to 444) (domain or fragment, UniProt Q96Q04 105-415, looked up)", "chain": "LAEVSLPMPAPQPSHSDMTTPLGLSRQHLSYLQEIGSGWFGKVILGEIFSDYTPAQVVVKELRASAGPLEQRKFISEAQPYRSLQHPNVLQCLGLCVETLPFLLIMEFCQLGDLKRYLRAQRPPEGLSPELPPRDLRTLQRMGLEIARGLAHLHSHNYVHSDLALRNCLLTSDLTVRIGDYGLAHSNYKEDYYLTPERLWIPLRWAAPELLGELHGTFMVVDQSRESNIWSLGVTLWELFEFGAQPYRHLSDEEVLAFVVRQQHVKLARPRLKLPYADYWYDILQSCWRPPAQRPSASDLQLQLTYLLSER", "modifications": "covalently labeled with a red NHS-647 fluorophore (NT647) for MST"}},
  "key": {"LMTK3": {"tested_on": "LMTK3", "experiment": "Western blots of LMTK3 in BC cell lines", "type": "cell-based, human", "settings": "for endogenous LMTK3 protein levels (Western blot): increasing concentrations of HSP90 inhibitor, 72 hours"}, "ERα": {"tested_on": "ERα", "experiment": "Western blots of ERα in BC cell lines", "type": "cell-based, human"}, "HSP90": {"tested_on": "HSP90", "experiment": "Western blots of chaperones in BC cell lines", "type": "cell-based, human", "settings": "increasing concentrations of C28, 48 hours"}, "CDC37": {"tested_on": "CDC37", "experiment": "Western blots of chaperones in BC cell lines", "type": "cell-based, human", "settings": "increasing concentrations of C28, 48 hours"}, "human HSP90α": {"target": "human HSP90α (Homo sapiens, UniProt P07900)", "experiment": "Isothermal titration calorimetry", "type": "binding", "settings": "0.2 mM C28 injected into 20 μM human HSP90α"}, "BC cells": {"tested_on": "BC cells", "experiment": "Cell viability assay", "type": "cell-based", "settings": "Homo sapiens, 72 h, read-out: IC50 values, growth of BC cells"}, "[1]": {"tested_on": "NCI-60 panel of tumor cell lines", "experiment": "NCI-60 one-dose screening", "type": "cell-based", "settings": "Homo sapiens, 24 h, read-out: inhibition of all cancer cell lines"}, "NCI-60 cell lines": {"tested_on": "NCI-60 cell lines", "experiment": "NCI-60 five-dose evaluation", "type": "cell-based, human", "settings": "five doses"}, "[2]": {"tested_on": "BC cell lines (MCF7, T47D, MDA-MB-231)", "experiment": "Cell death and apoptosis", "type": "cell-based, human", "settings": "increasing concentrations of C28, 72 hours"}, "MCF12A": {"tested_on": "MCF12A", "experiment": "Cell death and apoptosis", "type": "cell-based, human", "settings": "even at high concentrations of C28 and longer time points"}, "Pharmacokinetics in mice": {"experiment": "Pharmacokinetics in mice", "type": "in vivo", "settings": "male, BALB/c (nude), mouse, plasma"}, "MMTV-Neu mammary tumors": {"tested_on": "MMTV-Neu mammary tumors", "experiment": "MMTV-Neu transgenic mammary tumor model", "type": "in vivo, mice"}, "[3]": {"experiment": "Histopathologic analysis of tumor sections and organs, MMTV-Neu mice", "type": "in vivo", "settings": "C28 10 mg/kg oral daily"}, "MDA-MB-231 xenografts": {"tested_on": "MDA-MB-231 xenografts", "experiment": "MDA-MB-231 xenograft mouse model", "type": "in vivo, NSG mice", "settings": "C28 10 mg/kg oral daily; after 23 days"}, "IRAK4": {"target": "T1, IRAK4 (Homo sapiens, UniProt Q9NWZ3)", "T1 sequence (Q9NWZ3 1-460)": "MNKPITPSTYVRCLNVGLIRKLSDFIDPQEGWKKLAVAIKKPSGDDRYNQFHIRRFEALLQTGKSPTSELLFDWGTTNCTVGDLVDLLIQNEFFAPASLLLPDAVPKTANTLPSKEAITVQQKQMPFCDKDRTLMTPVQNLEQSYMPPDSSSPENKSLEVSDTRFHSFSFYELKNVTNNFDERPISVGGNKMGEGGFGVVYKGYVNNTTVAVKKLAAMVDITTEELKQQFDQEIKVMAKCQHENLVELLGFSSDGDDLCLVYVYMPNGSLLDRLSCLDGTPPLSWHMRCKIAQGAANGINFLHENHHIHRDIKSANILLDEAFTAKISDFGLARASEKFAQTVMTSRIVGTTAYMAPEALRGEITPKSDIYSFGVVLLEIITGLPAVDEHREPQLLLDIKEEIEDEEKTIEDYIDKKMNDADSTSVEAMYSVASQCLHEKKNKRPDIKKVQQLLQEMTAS", "experiment": "Western blots of kinases in BC cell lines", "settings": "10 μM C28, different time points"}, "HIPK2": {"target": "HIPK2 (Homo sapiens, UniProt Q9H2X6)", "sequence (Q9H2X6 whole entry)": "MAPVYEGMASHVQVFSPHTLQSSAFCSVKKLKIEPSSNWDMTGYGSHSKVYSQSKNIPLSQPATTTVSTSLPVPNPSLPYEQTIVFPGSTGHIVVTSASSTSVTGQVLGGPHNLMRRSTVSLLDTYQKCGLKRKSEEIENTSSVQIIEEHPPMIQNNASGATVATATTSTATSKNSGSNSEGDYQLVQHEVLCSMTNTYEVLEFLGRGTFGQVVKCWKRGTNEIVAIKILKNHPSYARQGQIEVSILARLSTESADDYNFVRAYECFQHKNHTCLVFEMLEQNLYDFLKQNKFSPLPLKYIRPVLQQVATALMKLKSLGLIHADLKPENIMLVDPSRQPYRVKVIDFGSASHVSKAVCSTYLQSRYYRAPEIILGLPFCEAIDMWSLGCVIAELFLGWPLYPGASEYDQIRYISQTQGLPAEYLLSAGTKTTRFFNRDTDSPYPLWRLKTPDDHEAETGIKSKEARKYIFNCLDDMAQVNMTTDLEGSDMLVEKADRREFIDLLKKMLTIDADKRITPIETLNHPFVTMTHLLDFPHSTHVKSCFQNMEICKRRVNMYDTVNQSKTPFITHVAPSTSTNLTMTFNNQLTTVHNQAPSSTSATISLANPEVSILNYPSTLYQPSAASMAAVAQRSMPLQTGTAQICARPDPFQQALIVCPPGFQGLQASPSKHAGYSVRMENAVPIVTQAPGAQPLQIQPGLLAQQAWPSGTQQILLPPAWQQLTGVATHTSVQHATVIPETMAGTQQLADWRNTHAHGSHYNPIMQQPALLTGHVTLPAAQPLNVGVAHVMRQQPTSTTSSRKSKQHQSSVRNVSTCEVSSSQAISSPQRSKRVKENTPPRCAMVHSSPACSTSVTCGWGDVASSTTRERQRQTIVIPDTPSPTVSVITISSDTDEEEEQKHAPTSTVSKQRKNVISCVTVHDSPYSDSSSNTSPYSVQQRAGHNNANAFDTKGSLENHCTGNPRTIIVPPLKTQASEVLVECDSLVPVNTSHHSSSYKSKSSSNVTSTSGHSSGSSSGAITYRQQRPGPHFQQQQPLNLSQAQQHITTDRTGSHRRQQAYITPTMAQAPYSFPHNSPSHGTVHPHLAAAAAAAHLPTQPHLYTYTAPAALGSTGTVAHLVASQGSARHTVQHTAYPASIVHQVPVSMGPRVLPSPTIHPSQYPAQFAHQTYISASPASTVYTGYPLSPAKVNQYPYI", "experiment": "Western blots of kinases in BC cell lines", "settings": "10 μM C28, different time points"}, "HSP70": {"tested_on": "HSP70", "experiment": "Western blots of HSP70 in BC cell lines", "type": "cell-based, human", "settings": "increasing concentrations of HSP90 inhibitor, 72 hours"}, "[4]": {"target": "T2, human CDC37 (cell division cycle 37), recombinant (human, UniProt Q16543 1-378)", "T2 sequence (looked up)": "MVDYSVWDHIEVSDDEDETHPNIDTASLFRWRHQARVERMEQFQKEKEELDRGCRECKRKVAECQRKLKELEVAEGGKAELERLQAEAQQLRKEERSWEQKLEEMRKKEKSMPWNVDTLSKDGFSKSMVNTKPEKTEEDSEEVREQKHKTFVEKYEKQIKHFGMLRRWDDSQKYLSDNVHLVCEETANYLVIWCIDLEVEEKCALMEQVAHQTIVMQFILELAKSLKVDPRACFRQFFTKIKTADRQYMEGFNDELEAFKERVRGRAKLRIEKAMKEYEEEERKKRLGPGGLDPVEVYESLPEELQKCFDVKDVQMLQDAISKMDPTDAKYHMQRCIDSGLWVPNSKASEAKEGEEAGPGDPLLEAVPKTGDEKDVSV", "experiment": "MST"}},
  "note": "“Also recorded” adds a separate entry of the source.",
  "data": [
    {"molecule": "FC(F)(F)Oc1cccc(-c2cnc3ccc(-c4ccncc4)nn23)c1", "note": "[C28, 6-(pyridin-4-yl)-3-(3-(trifluoromethoxy)phenyl)imidazo[1,2-b]pyridazine]", "values": [
      {"measurement": "LMTK3 protein levels (Western blot)", "setting": "LMTK3; increasing concentrations of C28, different time points", "value": "time- and dose-dependent degradation of LMTK3"},
      {"measurement": "protein levels of ERα (Western blot)", "setting": "ERα; BC cell lines treated with C28", "value": "decreased protein levels of ERα"},
      {"measurement": "protein levels of HSP90 (Western blot)", "setting": "HSP90", "value": "no effect"},
      {"measurement": "protein levels of CDC37 (Western blot)", "setting": "CDC37", "value": "no effect"},
      {"measurement": "binding to HSP90α (ITC)", "setting": "human HSP90α", "value": "no detectible heat of interaction; also recorded: does not bind to HSP90"},
      {"measurement": "IC50", "setting": "BC cells", "value": "6.5 to 8.64", "unit": "µM"},
      {"measurement": "inhibition at 10 µM", "setting": "[1]", "value": "> 50", "unit": "%"},
      {"measurement": "sensitivity of renal cancer cells", "setting": "NCI-60 cell lines", "value": "more sensitive"},
      {"measurement": "apoptosis of BC cell lines", "setting": "[2]", "value": "triggered apoptosis"},
      {"measurement": "cell death of nontransformed MCF12A", "setting": "MCF12A", "value": "low percentage of cell death"},
      {"measurement": "half-life", "setting": "Pharmacokinetics in mice; ip, 10 mg/kg, T1/2, plasma", "value": "~59", "unit": "min"},
      {"measurement": "Cmax", "setting": "Pharmacokinetics in mice; iv, 5 mg/kg", "value": 4.3, "unit": "µM"},
      {"measurement": "half-life", "setting": "Pharmacokinetics in mice; iv, 5 mg/kg, half-life (T1/2)", "value": "~10", "unit": "min"},
      {"measurement": "Cmax", "setting": "Pharmacokinetics in mice; po, 10 mg/kg", "value": 632, "unit": "ng/mL"},
      {"measurement": "half-life", "setting": "Pharmacokinetics in mice; po, 10 mg/kg, T1/2, plasma", "value": "~62", "unit": "min"},
      {"measurement": "Ki-67 IHC analysis of tumor sections", "setting": "MMTV-Neu mammary tumors; C28 10 mg/kg", "value": "decreased proliferation"},
      {"measurement": "LMTK3 expression in tumors (IHC staining)", "setting": "MMTV-Neu mammary tumors; C28 10 mg/kg", "value": "reduction of LMTK3 expression"},
      {"measurement": "tumor growth compared to the vehicle-treated group", "setting": "MMTV-Neu mammary tumors; C28 10 mg/kg oral daily", "value": "nearly completely abrogated tumor growth"},
      {"measurement": "toxicity (histopathology of tumor, lung, stomach, heart, kidney, liver, spleen)", "setting": "[3]", "value": "lack of toxicity"},
      {"measurement": "tumor growth compared to the control group", "setting": "MDA-MB-231 xenografts", "value": "significantly impeded growth"},
      {"measurement": "IRAK4 protein levels (Western blot)", "setting": "IRAK4", "value": "degradation"},
      {"measurement": "HIPK2 protein levels (Western blot)", "setting": "HIPK2", "value": "degradation"}
    ]},
    {"molecule": "CCNC(=O)c1noc(-c2cc(C(C)C)c(O)cc2O)c1-c1ccc(CN2CCOCC2)cc1", "note": "[NVP-AUY922]", "values": [
      {"measurement": "endogenous LMTK3 protein levels (Western blot)", "setting": "LMTK3", "value": "reduction of endogenous LMTK3 protein levels"},
      {"measurement": "ERα levels (Western blot)", "setting": "ERα; BC cell lines, HSP90 inhibitor, 72 hours", "value": "down-regulation of ERα"},
      {"measurement": "HSP70 levels (Western blot)", "setting": "HSP70", "value": "induction of HSP70"}
    ]},
    {"molecule": "COC1=C2C[C@@H](C)C[C@H](OC)[C@H](O)[C@@H](C)/C=C(\\C)[C@H](OC(N)=O)[C@@H](OC)/C=C\\C=C(/C)C(=O)NC(=CC1=O)C2=O", "note": "[geldanamycin]", "values": [
      {"measurement": "endogenous LMTK3 protein levels (Western blot)", "setting": "LMTK3", "value": "reduction of endogenous LMTK3 protein levels"},
      {"measurement": "HSP70 levels (Western blot)", "setting": "HSP70", "value": "induction of HSP70"}
    ]},
    {"molecule": "B1", "values": [
      {"measurement": "Kd", "setting": "[4]", "value": "2.21 ± 1.17", "unit": "µM"}
    ]}
  ]
}
